Laboratory results as given in the supplement of paper PMC11061612.

Legend:
Test in all cases: Bliss excess, mean over the matrix (fraction); higher = more synergy
[1] = test system: NCI-H1876 (Small Cell Lung Carcinoma)
Summary of the method: (§1)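 Bliss excess equals the observed combination effect minus the expected value EA + EB − EA·EB, where EA and EB are the effects of each agent alone. Combination Emax is the second-highest inhibition within the matrix. Inhibition was scaled from CellTiter-Glo 2.0 luminescence, with 0 set by vehicle wells and 1 by blank wells, after 72 hours of two-drug dosing of cells plated in 1536-well plates.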

[2] = test system: PA-TU-8988T (Pancreatic Carcinoma)
Summary of the method: as §1

[3] = test system: TUR (Acute Myeloid Leukemia)
Summary of the method: as §1

[4] = test system: AM-38 (Glioblastoma)
Summary of the method: as §1

[5] = test system: NCI-H3118 (Head and Neck Carcinoma)
Summary of the method: as §1

[6] = test system: T47D (Breast Carcinoma)
Summary of the method: as §1

[7] = test system: WM35 (Melanoma)
Summary of the method: as §1

[8] = test system: ZR-75-30 (Breast Carcinoma)
Summary of the method: as §1

[9] = test system: CL-11 (Colorectal Carcinoma)
Summary of the method: as §1

[10] = test system: OVCAR-3 (Ovarian Carcinoma)
Summary of the method: as §1

[11] = test system: MONO-MAC-6 (Acute Myeloid Leukemia)
Summary of the method: as §1

[12] = test system: BxPC-3 (Pancreatic Carcinoma)
Summary of the method: as §1

[13] = test system: NCI-H596 (Other Solid Carcinomas)
Summary of the method: as §1

[14] = test system: MDA-MB-415 (Breast Carcinoma)
Summary of the method: as §1

[15] = test system: NCI-H2373 (Mesothelioma)
Summary of the method: as §1

[16] = test system: T84 (Colorectal Carcinoma)
Summary of the method: as §1

[17] = test system: BHT-101 (Thyroid Gland Carcinoma)
Summary of the method: as §1

[18] = test system: P30-OHK (B-Lymphoblastic Leukemia)
Summary of the method: as §1

[19] = test system: NCI-H226 (Mesothelioma)
Summary of the method: as §1

[20] = test system: P32-ISH (Burkitt's Lymphoma)
Summary of the method: as §1

Structure (SMILES): CS(=O)(=O)CCNCc1ccc(-c2ccc3ncnc(Nc4ccc(OCc5cccc(F)c5)c(Cl)c4)c3c2)o1 [Lapatinib] + C[C@@H](Oc1cc(-c2cnn(C3CCNCC3)c2)cnc1N)c1c(Cl)ccc(F)c1Cl [Crizotinib] (first compound max 10 µM, 7x7, partner max 10 µM)
- Bliss excess [1]: 0.0167
- Bliss excess [2]: -0.0244
- Bliss excess [3]: -0.0168
- Bliss excess [4]: -0.0295
- Bliss excess [5]: 0.0337
- Bliss excess [6]: -0.0223
- Bliss excess [7]: -0.0446
- Bliss excess [8]: -0.0031
- Bliss excess [9]: -0.0477
- Bliss excess [10]: -0.0161
- Bliss excess [11]: -0.0438
- Bliss excess [12]: -0.0259
- Bliss excess [13]: -0.0065
- Bliss excess [14]: -0.0417
- Bliss excess [15]: -0.0258
- Bliss excess [16]: -0.006
- Bliss excess [17]: -0.0399
- Bliss excess [18]: 0.0323
- Bliss excess [19]: -0.0513
- Bliss excess [20]: 0.0037

Structure (SMILES): CC1(C)CCC(CN2CCN(c3ccc(C(=O)NS(=O)(=O)c4ccc(NCC5CCOCC5)c([N+](=O)[O-])c4)c(Oc4cnc5[nH]ccc5c4)c3)CC2)=C(c2ccc(Cl)cc2)C1 [Venetoclax] + C[C@@H]1COCCN1C2=NC(=NC(=C2)C3(CC3)[S@](=N)(=O)C)C4=C5C=CNC5=NC=C4 [AZD6738] (first compound max 1 µM, 7x7, partner max 10 µM)
- Bliss excess [1]: -0.0358
- Bliss excess [2]: 0.0107
- Bliss excess [3]: -0.0024
- Bliss excess [4]: 0.0223
- Bliss excess [5]: -0.0643
- Bliss excess [6]: -0.0634
- Bliss excess [7]: 0.023
- Bliss excess [8]: -0.0359
- Bliss excess [9]: -0.0395
- Bliss excess [10]: -0.0108
- Bliss excess [11]: -0.0322
- Bliss excess [12]: 0.0101
- Bliss excess [13]: -0.0571
- Bliss excess [14]: -0.0584
- Bliss excess [15]: -0.0052
- Bliss excess [16]: -0.0134
- Bliss excess [17]: -0.0888
- Bliss excess [18]: 0.154
- Bliss excess [19]: -0.0383
- Bliss excess [20]: 0.0365

Structure (SMILES): CC1(C)CCC(CN2CCN(c3ccc(C(=O)NS(=O)(=O)c4ccc(NCC5CCOCC5)c([N+](=O)[O-])c4)c(Oc4cnc5[nH]ccc5c4)c3)CC2)=C(c2ccc(Cl)cc2)C1 [Venetoclax] + Cc1cc2ncnn2cc1Nc1ncc2c(n1)n(C1CCOCC1)c(=O)n2C [AZD7648] (first compound max 1 µM, 7x7, partner max 10 µM)
- Bliss excess [1]: 0.0111
- Bliss excess [2]: -0.0251
- Bliss excess [3]: -0.0016
- Bliss excess [4]: -0.0098
- Bliss excess [5]: -0.0369
- Bliss excess [6]: -0.0459
- Bliss excess [7]: -0.0209
- Bliss excess [8]: -0.0381
- Bliss excess [9]: -0.0255
- Bliss excess [10]: -0.0259
- Bliss excess [11]: -0.025
- Bliss excess [12]: -0.0374
- Bliss excess [13]: -0.0119
- Bliss excess [14]: -0.117
- Bliss excess [15]: -0.056
- Bliss excess [16]: -0.0267
- Bliss excess [17]: -0.0011
- Bliss excess [18]: 0.0584
- Bliss excess [19]: -0.0552
- Bliss excess [20]: -0.0154

Structure (SMILES): Cc1cc2ncnn2cc1Nc1ncc2c(n1)n(C1CCOCC1)c(=O)n2C [AZD7648] + CN(C)CCCOc1ccc(-c2ccc3ncc4c(c3c2)n(C2CCOCC2)c(=O)n4C)cn1 [AZD0156] (first compound max 10 µM, 7x7, partner max 1 µM)
- Bliss excess [1]: 0.0523
- Bliss excess [2]: 0.0174
- Bliss excess [3]: 0.0283
- Bliss excess [4]: -0.0139
- Bliss excess [5]: 0.0143
- Bliss excess [6]: 0.0055
- Bliss excess [7]: -0.0123
- Bliss excess [8]: -0.0321
- Bliss excess [9]: 0.0399
- Bliss excess [10]: 0.0157
- Bliss excess [11]: -0.0869
- Bliss excess [12]: -0.0034
- Bliss excess [13]: -0.002
- Bliss excess [14]: -0.0254
- Bliss excess [15]: -0.0077
- Bliss excess [16]: 0.0332
- Bliss excess [17]: 0.0659
- Bliss excess [18]: 0.0194
- Bliss excess [19]: -0.0393
- Bliss excess [20]: 0.0153

Structure (SMILES): COc1cccc2c1C(=O)c1c(O)c3c(c(O)c1C2=O)C[C@@](O)(C(=O)CO)C[C@@H]3O[C@H]1C[C@H](N)[C@H](O)[C@H](C)O1 [Doxorubicin] + Cc1cc2ncnn2cc1Nc1ncc2c(n1)n(C1CCOCC1)c(=O)n2C [AZD7648] (first compound max 1 µM, 7x7, partner max 10 µM)
- Bliss excess [1]: 0.144
- Bliss excess [2]: 0.0582
- Bliss excess [3]: 0.119
- Bliss excess [4]: 0.114
- Bliss excess [5]: 0.0731
- Bliss excess [6]: -0.0004
- Bliss excess [7]: 0.0285
- Bliss excess [8]: 0.003
- Bliss excess [9]: 0.0863
- Bliss excess [10]: 0.0489
- Bliss excess [11]: 0.0935
- Bliss excess [12]: 0.0216
- Bliss excess [13]: -0.006
- Bliss excess [14]: -0.039
- Bliss excess [15]: 0.0433
- Bliss excess [16]: -0.0081
- Bliss excess [17]: 0.0409
- Bliss excess [18]: 0.129
- Bliss excess [19]: 0.0068
- Bliss excess [20]: 0.14

Structure (SMILES): Cc1cc2ncnn2cc1Nc1ncc2c(n1)n(C1CCOCC1)c(=O)n2C [AZD7648] + O=C(c1cc(Cc2n[nH]c(=O)c3ccccc23)ccc1F)N1CCN(C(=O)C2CC2)CC1 [Olaparib] (first compound max 10 µM, 7x7, partner max 10 µM)
- Bliss excess [1]: 0.0216
- Bliss excess [2]: -0.0047
- Bliss excess [3]: 0.0054
- Bliss excess [4]: 0.0174
- Bliss excess [5]: -0.0223
- Bliss excess [6]: -0.042
- Bliss excess [7]: -0.0239
- Bliss excess [8]: -0.0469
- Bliss excess [9]: -0.0464
- Bliss excess [10]: -0.0257
- Bliss excess [11]: -0.0146
- Bliss excess [12]: -0.0712
- Bliss excess [13]: -0.0384
- Bliss excess [14]: -0.0121
- Bliss excess [15]: 0.0234
- Bliss excess [16]: -0.0256
- Bliss excess [17]: -0.0071
- Bliss excess [18]: 0.0285
- Bliss excess [19]: -0.0801
- Bliss excess [20]: -0.0413

Structure (SMILES): C=CCn1c(=O)c2cnc(Nc3ccc(N4CCN(C)CC4)cc3)nc2n1-c1cccc(C(C)(C)O)n1 [AZD1775] + C[C@@H]1COCCN1C2=NC(=NC(=C2)C3(CC3)[S@](=N)(=O)C)C4=C5C=CNC5=NC=C4 [AZD6738] (first compound max 1 µM, partner max 10 µM)
- Bliss excess [1]: 0.0099
- Bliss excess [2]: 0.0222
- Bliss excess [3]: 0.0657
- Bliss excess [4]: 0.0618
- Bliss excess [5]: 0.0218
- Bliss excess [6]: -0.0302
- Bliss excess [7]: 0.0626
- Bliss excess [8]: 0.0186
- Bliss excess [9]: -0.0047
- Bliss excess [10]: 0.113
- Bliss excess [11]: 0.0178
- Bliss excess [12]: -0.0161
- Bliss excess [13]: 0.0323
- Bliss excess [14]: 0.0112
- Bliss excess [15]: 0.025
- Bliss excess [16]: 0.0084
- Bliss excess [17]: 0.0094
- Bliss excess [18]: 0.0928
- Bliss excess [19]: -0.0327
- Bliss excess [20]: 0.0304
